Assay results reported in ChEMBL document CHEMBL1144316, “Synthesis and biological activity evaluation of lignan lactones derived from (-)-cubebin” (2005).

Test system: Rattus norvegicus
Assay: Percentage inhibition of edema formation in rat after 3 hours of treatment with the compound at a dosage of 30 mg/Kg
Assay type: functional

Structure (SMILES)	inhibition in vivo at 30 mg/kg
OC1OC[C@@H](Cc2ccc3c(c2)OCO3)[C@@H]1Cc1ccc2c(c1)OCO2 (some centres undefined)	53%
O=C1OC[C@@H](Cc2cc3c(cc2[N+](=O)[O-])OCO3)[C@@H]1Cc1cc2c(cc1[N+](=O)[O-])OCO2	54%
Nc1cc2c(cc1C[C@@H]1COC(=O)[C@H]1Cc1cc3c(cc1N)OCO3)OCO2	82%
O=C1OC[C@@H](Cc2ccc3c(c2)OCO3)[C@@H]1Cc1ccc2c(c1)OCO2	63%
